Measurements from patent US20150064255A1, “NANOSTRUCTURES FOR TREATING CANCERS AND OTHER CONDITIONS” (Northwestern University, priority 2012, published 2015).

Experiments:
SR-B1 = target: T1, SR-B1 (Homo sapiens, UniProt Q8WTV0); test: BLT-1 cholesterol flux assays in SUDHL-4 cells; assay type: cell-based; details: SUDHL-4 cells pre-treated with 10 μM BLT-1 for 2 hr
T1 construct: treatment of SUDHL-4 cells with BLT-1 allowed a measurement of engagement and cholesterol flux through SR-B1; endogenous in cells; host or cells: SUDHL-4 cells
T1 sequence (Q8WTV0 1-552): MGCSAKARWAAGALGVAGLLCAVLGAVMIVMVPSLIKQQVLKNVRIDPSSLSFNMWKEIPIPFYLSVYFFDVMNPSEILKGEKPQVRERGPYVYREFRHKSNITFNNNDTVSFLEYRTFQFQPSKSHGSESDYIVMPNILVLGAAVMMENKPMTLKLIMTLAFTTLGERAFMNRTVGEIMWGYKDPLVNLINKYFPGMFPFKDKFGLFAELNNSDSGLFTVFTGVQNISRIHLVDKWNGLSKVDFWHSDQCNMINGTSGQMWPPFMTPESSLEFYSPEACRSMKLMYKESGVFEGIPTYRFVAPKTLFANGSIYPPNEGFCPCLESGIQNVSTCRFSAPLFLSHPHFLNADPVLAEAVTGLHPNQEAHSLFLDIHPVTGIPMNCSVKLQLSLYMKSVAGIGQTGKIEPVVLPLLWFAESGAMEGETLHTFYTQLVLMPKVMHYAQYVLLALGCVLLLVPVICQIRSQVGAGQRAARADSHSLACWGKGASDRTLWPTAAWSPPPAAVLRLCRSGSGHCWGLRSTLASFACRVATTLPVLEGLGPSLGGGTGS
Experimental: Blocker of lipid transport-1 (BLT-1) is a small molecule that binds cysteine-384 in the extracellular loop domain of SR-B1 and inhibits cholesterol flux through SR-B1 without altering the binding of HDL particles to the receptor. Thus, treatment of SUDHL-4 cells with BLT-1 allowed a measurement of engagement and cholesterol flux through SR-B1.
Alterations in cholesterol flux after addition of blocker of lipid transport 1 (BLT-1) were measured as described above; however, cells were pre-treated with 10 μM BLT-1 (2-hexyl-1-cyclopentanone thiosemicarbazone, ChemBridge Corporation) for 2 hr prior to cell treatments. Following cholesterol influx or efflux, the cells were collected in fresh media for measurement of cholesterol flux as previously described. Efflux is expressed as a percentage of the control cells, which were not treated with BLT-1. Influx is expressed as a percentage of the control cells, which were not treated with BLT-1.

Ramos cells = test: MTS cell viability assay; assay type: cell-based, human; details: untreated control set to 100%
Text: Ramos and SUDHL-4 cell lines are GC-derived B cell lines from BL and DLBCL, respectively. In addition, we chose to study the ABC-like DLBCL line, LY3. Jurkat cells and normal human lymphocytes provided SR-B1 receptor negative controls. In addition, we also chose two primary cells known to express SR-B1 that are critical cell types naturally engaged by HDLs, hepatocytes and macrophages. For each of the cell types, we measured cell viability by an MTS assay following treatment with human serum derived HDL (hHDL) or HDL-NPs. MTS is a colorimetric assay where the magnitude of absorbance is proportional to cell viability. For each treatment, and for each comparison made throughout our studies, we added equivalent doses of hHDL and HDL-NPs based upon the amount of apolipoprotein A-1 (Apo A1). […] Treatment with hHDL or HDL-NPs had no effect in primary hepatocytes or macrophage cells (FIGS. 3C and 3D). […]
For primary human hepatocytes and CD14+ monocytes, 9×10^3 cells/90 μL were seeded in 96-well plates and allowed to attach, and differentiate in the case of the CD14+ monocytes, for 24 hours prior to initiation of treatment. […] The absorbance was read at 490 nm using a microplate reader (MRX Revelation; DYNEX Technologies) and was expressed as a percentage of the control group. […]

Question: CCCCCCC1CCCC1=NNC(N)=S (centres unmarked) [BLT-1, 2-hexyl-1-cyclopentanone thiosemicarbazone] was tested. Which “cholesterol flux to hHDL and HDL-NPs” value (SR-B1) did it give?
Answer: inhibited cholesterol flux

Question: With CCCCCCCCCCCCCCCC(=O)OC[C@H](COP(=O)(O)OCCNC(=O)CCSSc1ccccn1)OC(=O)CCCCCCCCCCCCCCC [PDP PE, 1,2-dipalmitoyl-sn-glycero-3-phosphoethanolamine-N-[3-(2-pyridyldithio)propionate]] as the molecule, how does the “relative absorbance, MTS assay (cell viability)” value (Ramos cells) read?
Answer: relatively small but statistically significant reduction
